Structures can show the parent of a compound that is named as a salt.
target: mGluR5 (Homo sapiens, UniProt P41594); experiment: inhibition of the glutamate induced elevation of intracellular Ca2+ concentration; settings: inhibition of glutamate induced elevation of intracellular Ca2+ concentration at 10 μM
Sequence (P41594 21-1180 isoform P41594-2 limits assumed): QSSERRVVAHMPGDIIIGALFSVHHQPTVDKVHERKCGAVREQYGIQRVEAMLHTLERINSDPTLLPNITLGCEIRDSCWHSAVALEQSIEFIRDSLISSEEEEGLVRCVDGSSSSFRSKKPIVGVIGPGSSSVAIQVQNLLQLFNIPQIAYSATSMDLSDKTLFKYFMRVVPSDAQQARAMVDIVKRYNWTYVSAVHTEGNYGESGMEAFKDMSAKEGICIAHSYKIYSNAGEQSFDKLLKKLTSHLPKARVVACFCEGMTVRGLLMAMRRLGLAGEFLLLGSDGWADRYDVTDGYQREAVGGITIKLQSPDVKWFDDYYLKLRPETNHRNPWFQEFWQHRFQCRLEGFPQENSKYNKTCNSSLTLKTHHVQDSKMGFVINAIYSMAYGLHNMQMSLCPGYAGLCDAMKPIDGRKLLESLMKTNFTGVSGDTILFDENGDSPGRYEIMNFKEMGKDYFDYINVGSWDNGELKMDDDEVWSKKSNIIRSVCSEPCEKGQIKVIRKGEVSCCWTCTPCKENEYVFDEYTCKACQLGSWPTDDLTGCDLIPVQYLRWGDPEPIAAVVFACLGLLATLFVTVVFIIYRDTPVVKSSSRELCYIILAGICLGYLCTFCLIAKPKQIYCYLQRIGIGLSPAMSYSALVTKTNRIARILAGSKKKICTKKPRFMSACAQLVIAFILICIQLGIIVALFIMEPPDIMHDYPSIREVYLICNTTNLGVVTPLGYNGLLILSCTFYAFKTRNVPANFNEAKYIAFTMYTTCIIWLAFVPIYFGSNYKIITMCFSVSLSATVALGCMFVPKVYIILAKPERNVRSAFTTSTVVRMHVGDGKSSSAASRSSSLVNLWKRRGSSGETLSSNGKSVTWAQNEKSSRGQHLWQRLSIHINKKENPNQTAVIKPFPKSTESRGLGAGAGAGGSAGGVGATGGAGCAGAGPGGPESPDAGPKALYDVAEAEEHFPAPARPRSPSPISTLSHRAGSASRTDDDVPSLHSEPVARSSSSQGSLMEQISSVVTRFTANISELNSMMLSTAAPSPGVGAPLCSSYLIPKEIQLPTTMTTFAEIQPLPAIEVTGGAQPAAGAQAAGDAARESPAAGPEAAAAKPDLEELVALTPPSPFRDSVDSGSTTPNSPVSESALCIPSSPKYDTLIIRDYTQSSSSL
Text: This can be determined in vitro for example at recombinant human metabotropic glutamate receptors, especially PLC-coupled subtypes thereof such as mGluR5, using different procedures like, for example, measurement of the inhibition of the agonist induced elevation of intracellular Ca^2+ concentration in accordance with L. P. Daggett et al., Neuropharm.

Going from `C[C@H]1CCCN(C(=O)c2ccc(Nc3ccc(Cl)cc3)nc2)C1` [Compound 1.12a, [6-(4-Chloro-phenylamino)-pyridin-3-yl]-(S-3-methyl-piperidin-1-yl)-methanone] to `Cc1ccc(Nc2ccc(C(=O)N3CCC[C@H](C)C3)cn2)cn1` [Compound 4.13a, (S-3-Methyl-piperidin-1-yl)-[6-(6-methyl-pyridin-3-ylamino)-pyridin-3-yl]-methanone], the “mGluR5 Activity inh. at 10 μM [%]” value falls from 99% to 97%.

same assay, conditions: read-out: mGluR5 Activity inh. at 10 μM [%]

`COc1cc(C(=O)N2CCCCCC2)cnc1Nc1ccc(Cl)cc1` [Compound 6.1, Azepan-1-yl-[6-(4-chloro-phenylamino)-5-methoxy-pyridin-3-yl]-methanone] and `O=C(c1ccc(Nc2ccc(Cl)cc2)nc1)N1CCCCCC1` [Compound 4.2, Azepan-1-yl-[6-(4-chloro-phenylamino)-pyridin-3-yl]-methanone] are the same in inhibition at 10 µM: 97% for the first, 97% for the second.

First: Cc1ccc(Nc2ccc(C(=O)N3CCCCCC3)cn2)cn1 [Compound 4.15, Azepan-1-yl-[6-(6-methyl-pyridin-3-ylamino)-pyridin-3-yl]-methanone]
Second: Cc1ccc(Nc2ccc(C(=O)N3CCCCCCC3)cn2)cn1 [Compound 4.16, Azocan-1-yl-[6-(6-methyl-pyridin-3-ylamino)-pyridin-3-yl]-methanone]
The inhibition at 10 µM of the first is higher: 98% for the first, 81% for the second.

Compared with `COCCC1CCCCN1C(=O)c1cnc(Nc2ccc(C)nc2)c(Cl)c1` (centres unmarked) [Compound 4.71, [5-Chloro-6-(6-methyl-pyridin-3-ylamino)-pyridin-3-yl]-[2-(2-methoxy-ethyl)-piperidin-1-yl]-methanone], `Cc1ccc(Nc2ncc(C(=O)N3CCCCC3CCCl)cc2Cl)cn1` (centres unmarked) [Compound 4.47, [2-(2-Chloro-ethyl)-piperidin-1-yl]-[5-chloro-6-(6-methyl-pyridin-3-ylamino)-pyridin-3-yl]-methanone] is lower in inhibition at 10 µM: 99% for the first, 97% for the second.

Going from `Cc1ccc(Nc2ncc(C(=O)N3CCCCC3C3CCCO3)cc2Cl)cn1` (centres unmarked) [Compound 4.44, [5-Chloro-6-(6-methyl-pyridin-3-ylamino)-pyridin-3-yl]-[2-(tetrahydro-furan-2-yl)-piperidin-1-yl]-methanone] to `Cc1ccc(Nc2ncc(C(=O)N3CCCC[C@H]3C)cc2Cl)cn1` [Compound 4.24, [5-Chloro-6-(6-methyl-pyridin-3-ylamino)-pyridin-3-yl]-((R)-2-methyl-piperidin-1-yl)-methanone], the inhibition at 10 µM falls from 99% to 92%.

Compared with `O=C(c1ccc(Nc2ccc(Br)cc2)nc1)N1CCCCC1` [Compound 1.6, [6-(4-Bromo-phenylamino)-pyridin-3-yl]-piperidin-1-yl-methanone], `N#Cc1ccc(Nc2ccc(C(=O)N3CCCCC3)cn2)cc1` [Compound 1.7, 4-[5-(Piperidine-1-carbonyl)-pyridin-2-ylamino]-benzonitrile] is lower in inhibition at 10 µM: 96% for the first, 77% for the second.

Going from `CCC[C@@H]1CCC[C@@H](CC)N1C(=O)c1cnc(Nc2ccc(C)nc2)c(Cl)c1` [Compound 4.51, [5-Chloro-6-(6-methyl-pyridin-3-ylamino)-pyridin-3-yl]-((2R,6R)-2-ethyl-6-propyl-piperidin-1-yl)-methanone] to `CCCC1CCCC(C)N1C(=O)c1cnc(Nc2ccc(C)nc2)c(Cl)c1` (centres unmarked) [Compound 4.50, [5-Chloro-6-(6-methyl-pyridin-3-ylamino)-pyridin-3-yl]-(2-methyl-6-propyl-piperidin-1-yl)-methanone], the inhibition at 10 µM rises from 96% to 98%.

Going from `CC[C@@H]1CCCCN1C(=O)c1cnc(Nc2ccc(OC)nc2)c(Cl)c1` [Compound 2.24, [5-Chloro-6-(6-methoxy-pyridin-3-ylamino)-pyridin-3-yl]-((R)-2-ethyl-piperidin-1-yl)-methanone] to `COc1ccc(Nc2ncc(C(=O)N3CCCC(C)C3)cc2Cl)cn1` (racemic) [Compound 2.6, rac-[5-Chloro-6-(6-methoxy-pyridin-3-ylamino)-pyridin-3-yl]-(3-methyl-piperidin-1-yl)-methanone], the inhibition at 10 µM rises from 97% to 98%.

First: Cc1ccc(Nc2ncc(C(=O)N3CC4CCC3C4)cc2Cl)cn1 (racemic) [Compound 2.13, rac-(2-Aza-bicyclo[2.2.1]hept-2-yl)-[5-chloro-6-(6-methyl-pyridin-3-ylamino)-pyridin-3-yl]-methanone]
Second: Cc1ccc(Nc2ncc(C(=O)N3CCC[C@H](C)[C@@H]3C)cc2Cl)cn1 [Compound 4.21, [5-Chloro-6-(6-methyl-pyridin-3-ylamino)-pyridin-3-yl]-((2S,3S)-2,3-dimethyl-piperidin-1-yl)-methanone]
The inhibition at 10 µM of the first is lower: 96% for the first, 99% for the second.

Going from `CCOc1cc(C(=O)N2CCCCC2)cnc1Nc1ccc(C)nc1` [Compound 6.7, [5-Ethoxy-6-(6-methyl-pyridin-3-ylamino)-pyridin-3-yl]-piperidin-1-yl-methanone] to `CCOc1cc(C(=O)N2CCCCCC2)cnc1Nc1ccc(C)nc1` [Compound 6.6, Azepan-1-yl-[5-ethoxy-6-(6-methyl-pyridin-3-ylamino)-pyridin-3-yl]-methanone], the inhibition at 10 µM rises from 35% to 54%.

First: CCN(CC)C(=O)c1ccc(Nc2ccc(C)cc2)nc1 [Compound 1.2, N,N-Diethyl-6-p-tolylamino-nicotinamide hydrochloride]
Second: CCN(CC)C(=O)c1ccc(Nc2ccc(Cl)cc2)nc1 [Compound 1.1, 6-(4-Chloro-phenylamino)-N,N-diethyl-nicotinamide hydrochloride]
The inhibition at 10 µM of the first is lower: 93% for the first, 95% for the second.

Going from `C[C@@H]1CCCN(C(=O)c2ccc(Nc3ccc(Cl)cc3)nc2)C1` [Compound 1.12b, [6-(4-Chloro-phenylamino)-pyridin-3-yl]-(R-3-methyl-piperidin-1-yl)-methanone] to `COC1CCCN(C(=O)c2ccc(Nc3ccc(Cl)cc3)nc2)C1` (racemic) [Compound 4.7, rac-[6-(4-Chloro-phenylamino)-pyridin-3-yl]-(3-methoxy-piperidin-1-yl)-methanone], the inhibition at 10 µM falls from 100% to 87%.

Compared with `O=C(c1ccc(Nc2ccc(Cl)cc2)nc1)N1CCCC(CO)C1` (racemic) [Compound 4.6, rac-[6-(4-Chloro-phenylamino)-pyridin-3-yl]-(3-hydroxymethyl-piperidin-1-yl)-methanone], `CC1CC(C)CN(C(=O)c2ccc(Nc3ccc(Cl)cc3)nc2)C1` (centres unmarked) [Compound 4.5, [6-(4-Chloro-phenylamino)-pyridin-3-yl]-(3,5-dimethyl-piperidin-1-yl)-methanone] is higher in inhibition at 10 µM: 86% for the first, 88% for the second.

Going from `CCC1OCCCCN1C(=O)c1cnc(Nc2ccc(C)nc2)c(Cl)c1` (centres unmarked) [Compound 4.65, [5-Chloro-6-(6-methyl-pyridin-3-ylamino)-pyridin-3-yl]-(2-ethyl-[1,3]oxazepan-3-yl)-methanone] to `CCCCC1OCCCN1C(=O)c1cnc(Nc2ccc(C)nc2)c(Cl)c1` (centres unmarked) [Compound 4.70, (2-Butyl-[1,3]oxazinan-3-yl)-[5-chloro-6-(6-methyl-pyridin-3-ylamino)-pyridin-3-yl]-methanone], the inhibition at 10 µM rises from 83% to 96%.

First: Cc1ccc(Nc2ncc(C(=O)N3CCCCC3c3ncco3)cc2Cl)cn1 (centres unmarked) [Compound 4.46, [5-Chloro-6-(6-methyl-pyridin-3-ylamino)-pyridin-3-yl]-(2-oxazol-2-yl-piperidin-1-yl)-methanone]
Second: Cc1ccc(Nc2ncc(C(=O)N3CCCCC3c3ccc(C)o3)cc2Cl)cn1 (centres unmarked) [Compound 4.45, [5-Chloro-6-(6-methyl-pyridin-3-ylamino)-pyridin-3-yl]-[2-(5-methyl-furan-2-yl)-piperidin-1-yl]-methanone]
The inhibition at 10 µM of the first is higher: 94% for the first, 90% for the second.

Going from `CC1CCCN(C(=O)c2cnc(Nc3ccc(Cl)nc3)c(Cl)c2)C1` (centres unmarked) [Compound 7.1, [5-Chloro-6-(6-chloro-pyridin-3-ylamino)-pyridin-3-yl]-(3-methyl-piperidin-1-yl)-methanone] to `COc1ccc(Nc2ncc(C(=O)N3CCCCC3)cc2Cl)cn1` [Compound 2.8, [5-Chloro-6-(6-methoxy-pyridin-3-ylamino)-pyridin-3-yl]-piperidin-1-yl-methanone], the inhibition at 10 µM falls from 98% to 96%.

Compared with `O=C(c1cnc(Nc2ccc(Cl)cc2)nc1)N1CCCCC1` [Compound 5.4, [2-(4-Chloro-phenylamino)-pyrimidin-5-yl]-piperidin-1-yl-methanone], `Cc1ccc(Nc2ncc(C(=O)N3CCCCC3)cc2C)cn1` [Compound 9.1, [5-Methyl-6-(6-methyl-pyridin-3-ylamino)-pyridin-3-yl]-piperidin-1-yl-methanone] is higher in inhibition at 10 µM: 83% for the first, 97% for the second.

First: O=C(c1ccc(Nc2ccc(Cl)cc2)nc1)N1CCCC2CCCCC21 (centres unmarked) [Compound 4.8, [6-(4-Chloro-phenylamino)-pyridin-3-yl]-(octahydro-quinolin-1-yl)-meth anone]
Second: O=C(c1ccc(Nc2ccc(Cl)cc2)nn1)N1CCc2ccccc2C1 [Compound 8.4, [6-(4-Chloro-phenylamino)-pyridazin-3-yl]-(3,4-dihydro-1H-isoquinolin-2-yl)-methanone]
The inhibition at 10 µM of the first is higher: 94% for the first, 89% for the second.

Compared with `Cc1ccc(Nc2ncc(C(=O)N3CCCC3c3ccccc3)cc2Cl)cn1` (centres unmarked) [Compound 4.72, [5-Chloro-6-(6-methyl-pyridin-3-ylamino)-pyridin-3-yl]-(2-phenyl-pyrrolidin-1-yl)-methanone], `C=CC1CCCCN1C(=O)c1cnc(Nc2ccc(C)nc2)c(Cl)c1` (centres unmarked) [Compound 4.55, [5-Chloro-6-(6-methyl-pyridin-3-ylamino)-pyridin-3-yl]-(2-vinyl-piperidin-1-yl)-methanone] is lower in inhibition at 10 µM: 97% for the first, 96% for the second.

First: Cc1ccc(Nc2ncc(C(=O)N3CCCC[C@@H]3C(C)C)cc2Cl)cn1 [Compound 4.29, [5-Chloro-6-(6-methyl-pyridin-3-ylamino)-pyridin-3-yl]-((R)-2-isopropyl-piperidin-1-yl)-methanone]
Second: Cc1ccc(Nc2ncc(C(=O)N3CCCCC3C(C)C)cc2Cl)cn1 (centres unmarked) [Compound 4.28, [5-Chloro-6-(6-methyl-pyridin-3-ylamino)-pyridin-3-yl]-(2-isopropyl-piperidin-1-yl)-methanone]
The inhibition at 10 µM of the first is lower: 86% for the first, 93% for the second.

`Cc1ccc(Oc2ncc(C(=O)N3CCCCC3)cc2Cl)cn1` [Compound 3.2, [5-Chloro-6-(6-methyl-pyridin-3-yloxy)-pyridin-3-yl]-piperidin-1-yl-methanone] gave an inhibition at 10 µM of 97%.
